In data set [1] the test system is all cancerous cells tested. Put plainly: Cytotoxicity assay, summary over all cancerous cells tested. Type of data set: cell-based. The following applies: Homo sapiens; 48 h treatment; read-out: EC50 of cell death, range over all cancerous cells tested. As for the experimental part: For cytotoxicity assays, cells were seeded in 96-well microplates 24 hours before the addition of increasing concentrations of each compound in the culture medium. Cell viability was analyzed 48 hours following addition of each compound through the monitoring of mitochondrial […] activity using PrestoBlue® Cell Viability Reagent (Invitrogen; #A-13261). Paclitaxel was used as a control which is cytotoxic on various cancerous cells although not on chemoresistant MESSA DX5 lineage.

For the next data set, the system named is HCC827 cells. Put plainly: Cell growth inhibition and cell death induction (Incucyte), HCC827. As to conditions: 72 hours, FIG. 12A,B. In kind it is cell-based, human. The source says: (§1) FIG. 12: The cell growth inhibition and cell death induction of non-small cell lung cancers (NSCLC), HCC827 cells and derivative Gefitinib-resistant clone H1975 (FIG. 12 A,B) and of PC-3 (FIG. 12 C,D) and LnCAP (FIG. 12 E,F) were monitored using Incucyte microscope. Histogram represent in A,C,E: the final cell area relative to the total well area in (%) and in B,D,F: the fluorescent area in μm2. Error bars indicate standard deviation between 6 technical replicates.
(§2) The cell growth inhibition and cell death induction of non-small cell lung cancers (NSCLC), HCC827 cells and derivative Gefitinib-resistant clone H1975 were monitored during a period of 72 hours using Incucyte microscope and dedicated programs allowing to monitor cell confluency (i.e.: cell surface area relative to total well surface) and cell death induction by adding Propidium Iodide (PI) at 1 μg/ml (Sigma Aldrich #P4864) in the culture medium.

Data set [2] deals with Gefitinib-resistant clone H1975. In words: Cell growth inhibition and cell death induction (Incucyte), H1975. Type of data set: cell-based, human. The following applies: 72 hours, FIG. 12A,B.
Excerpt: as §1, §2

The test system of a further data set is LNCaP cells spheroids. In words: Cell death in 3D spheroids (PI/Hoechst, high content analysis). Type of data set: cell-based, human. As to conditions: 1 to 3 days, increasing concentration, FIG. 2C. As for the experimental part:
Spheroids were then stained with Hoechst and Propidium Iodure (PI). The area of each staining was calculated via automated imaging. Histograms represent the medium value of the PI/Hoechst areas ratio calculated on 3 to 6 independent spheroids. Error bars indicate the standard deviation between technical replicates. One out of three experiments is presented.
For 3D cell culture (spheroids), the LNCaP-FGC (fast growing colony) cell line (ATCC #CRL1740) was used. This cell line derives from the LNCaP cell line (Human Prostatic Carcinoma) which shares all the main characteristics, including its androgen sensitivity, described for the parental line and HCT116 (ATCC #CCL 247) (Human Colorectal Carcinoma) cell lines. […]
An automated imaging protocol was designed to monitor the induction of cell death in the spheroids by high content analysis methods (HCA). 3 hours before reading, cells were labeled with vital Hoechst (400 ng/ml) (Thermo Fischer Scientific #33342) and Propidium Iodide (PI) at 1 μg/ml (Sigma Aldrich #P4864) as markers of cell nuclei and cell death respectively. Images of PI and Hoechst fluorescence were acquired using the automated microscope ArrayScan^VTI (ThermoScientific) and 5 times magnification. […]

Data set [3] can be described thus: Metabolic stability on mouse liver microsomes. Type of data set: in vitro ADME. As to conditions: 0.5 μM, up to 30 min; for cofactors (CYP)-mediated metabolism, mouse: with cofactors; for metabolism in the absence of cofactors, mouse: without cofactors. As for the experimental part: Each compound was incubated either with cofactors (n=2) or without cofactors (n=1). Positive controls were: Diclofenac, Midazolam and Amitriptyline.

Data set [4] deals with CyclinD1, FAS, p53, PARP, cMyc in LNCaP cells. Put plainly: Protein expression by immunoblot, LNCaP. Type of data set: cell-based, human. As to conditions: for Myc expression level, LNCaP / PARP cleavage, LNCaP: 24 h; for Myc expression level, LNCaP / PARP cleavage, LNCaP / phosphorylated p53 (P-Ser392, P-Ser15), LNCaP: FIG. 8; for PARP cleavage, LNCaP: concentration dependent; for phosphorylated p53 (P-Ser392, P-Ser15), LNCaP: FIG. 7C. As for the experimental part:
In FIG. 6B and FIG. 6D, LNCaP cells were treated with dihydrotestosterone (DHT) to induce hormonal dependent FAS expression. Actin or Tubulin (Tub) serve as loading controls. One representative experiment out of three is presented.
Actin or Tubulin (Tub) serve as loading controls. One representative experiment out of three is presented.
Tubulin (Tub) serves as loading controls. One representative experiment out of three is presented.
Cells were treated by either DMSO (0.5%) or increasing doses of the selected molecules from 1 μM to 10 μM over 6 to 24 hours as indicated. Cell lysates were analyzed by immunoblotting following standard procedure using primary antibodies from Cell Signaling: anti-total P53 (#9282), anti-phosphoP53 Kit (#9919), anti-cyclinD1 (#2926), anti-FAS (#3189), anti EGFR (#4267), anti-Phospho (tyr1068) EGFR (#2234), anti Met (#4560), anti-Akt (#9272), anti Phospho(Ser473)-Akt (#9271) or anti-Myc (Santa Cruz Technology #Sc-40). Tubulin was detected using anti α-tubulin primary antibody (in-house: the polyclonal Glu-tubulin antibody (L4) is available commercially from Abcys (Paris, France)). HRP-coupled anti-rabbit (#A6154) and anti-mouse (#A4416) secondary antibodies were purchased from Sigma. HRP activity was detected through HRP chemoluminescence detection reagent (Millipore, #WBLUF0100). Apoptotic cell death induction was observed through the observation of PARP cleavage using anti-PARP primary antibodies anti-PARP (46D11) (#9532). Positive control was Epotoside at 50 μM or 100 μM, a known drug inducing cancerous cell death by apoptosis.
On the technique in general: In western blotting, separated proteins are transferred to a membrane and probed.

The mark [5] stands for this setting: dose and time dependent, 6 h or 24 h, FIG. 6.

In the case of `CCCCS(=O)(=O)Cc1nc2c(nc1CS(=O)(=O)CCCC)C(=O)c1ccccc1C2=O` [PCR6236], the EC50 (as a rule, the concentration needed to bring the measured effect to its halfway point) in data set [1] is 1000 to 3500 nM. The “cell growth inhibition and cell death induction, HCC827” value in the data set with HCC827 cells is “inhibit cell growth and induce cell death in a dose dependent manner”. Besides, the “cell growth inhibition and cell death induction, H1975” value in data set [2] was “inhibit cell growth and induce cell death in a dose dependent manner”. Further, the “cell death in spheroids (PI area over Hoechst area)” value with LNCaP cells spheroids is on record as “significant induction of a tumorous cells death”. In data set [3], the “cofactors (CYP)-mediated metabolism, mouse” value is “high” and the “metabolism in the absence of cofactors, mouse” value is “No metabolism was observed”. Moreover, in data set [4], the “Myc expression level, LNCaP” value is recorded as “decrease”; the “PARP cleavage, LNCaP” value is listed as “induced the cleavage of PARP”; the “phosphorylated p53 (P-Ser392, P-Ser15), LNCaP” value is on record as “accumulated”. For the same molecule, in data set [4] (setting [5]), the “expression level of CyclinD1, LNCaP” value is given as “strongly decreased” and the “expression level of FAS, LNCaP” value is “strongly decreased”. In addition, the “p53 expression, LNCaP” value in data set [4] (dose dependent, FIG. 7A) is on record as “restored high levels of p53 expression”.
Consider `CCCCS(=O)(=O)Cc1nc2c(o1)C(=O)c1ccccc1C2=O` [PCR9301], for which the 50% effective concentration (EC50) in data set [1] lay in the range of 1000 to 3500 nM. In addition, in the data set on HCC827 cells, the “cell growth inhibition and cell death induction, HCC827” value was “inhibit cell growth and induce cell death in a dose dependent manner”. The “cell growth inhibition and cell death induction, H1975” value in data set [2] was “inhibit cell growth and induce cell death in a dose dependent manner”. In the data set on LNCaP cells spheroids, the “cell death in spheroids (PI area over Hoechst area)” value was “to an ever higher extend”. Moreover, in data set [3], the “cofactors (CYP)-mediated metabolism, mouse” value is recorded as “not or poorly metabolized” and the “metabolism in the absence of cofactors, mouse” value is given as “No metabolism was observed”. Besides, in data set [4], the “Myc expression level, LNCaP” value was “cMyc degradation”; the “PARP cleavage, LNCaP” value is recorded as “induced PARP cleavage”; the “phosphorylated p53 (P-Ser392, P-Ser15), LNCaP” value is “phosphorylation of p53 on Ser15”.

These data come from patent US11306063B2, “Heterocyclic naphthoquinones derivatives for use in the treatment of cancers including Cushing disease” (Commissariat a l'Energie Atomique et aux Energies …, priority 2016, dated 2022).
